The supplement of paper PMC9663587

Tests used:
[1] = compound: CCN1CCN(Cc2ccc(Nc3ncc(F)c(-c4cc(F)c5nc(C)n(C(C)C)c5c4)n3)nc2)CC1; assay: increase in dead-cell fraction, 72 h; higher = more death;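 further: breast cancer cell lines in 384-well plates, stained with Hoechst plus LIVE/DEAD far red dye and imaged, cells above an LDR intensity threshold counted dead, Hoechst-negative corpses included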
Flavopiridol [2] = compound: T1, CN1CC[C@H](c2c(O)cc(O)c3c(=O)cc(-c4ccccc4Cl)oc23)[C@H](O)C1 [Flavopiridol]; assay: as above
YKL-5-124 = compound: C=CC(=O)Nc1ccc(C(=O)Nc2[nH]nc3c2CN(C(=O)N[C@H](CN(C)C)c2ccccc2)C3(C)C)cc1 [YKL-5-124]; assay: GR value, 72 h; higher = faster growth (1 = untreated, <0 = killing);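 further: breast cancer and non-malignant breast epithelial lines, nine half-log doses, viable cells counted by Hoechst and LIVE/DEAD dye imaging versus time-zero plates and DMSO controls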
BSJ-03-123 = compound: CC(=O)c1c(C)c2cnc(Nc3ccc(N4CCN(CCOCCOCCOCCNC(=O)COc5cccc6c5C(=O)N(C5CCC(=O)NC5=O)C6=O)CC4)cn3)nc2n(C2CCCC2)c1=O [BSJ-03-123]; assay: as above
[3] = compound: CC(=O)c1c(C)c2cnc(Nc3ccc(N4CCNCC4)cn3)nc2n(C2CCCC2)c1=O; assay: as above
[4] = compound: CCN1CCN(Cc2ccc(Nc3ncc(F)c(-c4cc(F)c5nc(C)n(C(C)C)c5c4)n3)nc2)CC1; assay: as above
Neratinib/HKI272 = compound: CCOc1cc2ncc(C#N)c(Nc3ccc(OCc4ccccn4)c(Cl)c3)c2cc1NC(=O)/C=C/CN(C)C [Neratinib/HKI272]; assay: as above
[5] = compound: CCc1cnn2c(NCc3ccc[n+]([O-])c3)cc(N3CCCC[C@H]3CCO)nc12; assay: as above
LEE011/Ribociclib = compound: CN(C)C(=O)c1cc2cnc(Nc3ccc(N4CCNCC4)cn3)nc2n1C1CCCC1 [LEE011/Ribociclib]; assay: as above
THZ531 = compound: CN(C)C/C=C/C(=O)Nc1ccc(C(=O)N2CCC[C@@H](Nc3ncc(Cl)c(-c4c[nH]c5ccccc45)n3)C2)cc1 [THZ531]; assay: as above
THZ1 = compound: CN(C)C/C=C/C(=O)Nc1ccc(C(=O)Nc2cccc(Nc3ncc(Cl)c(-c4c[nH]c5ccccc45)n3)c2)cc1 [THZ1]; assay: as above
Flavopiridol [6] = compound: T1, Flavopiridol; assay: as above

Cell Line: MCF12A
- increase in dead-cell fraction ([1]; 0.001 µM): -0.003
- increase in dead-cell fraction ([1]; 0.003162 µM): 0.0003
- increase in dead-cell fraction ([1]; 0.01 µM): -0.0021
- increase in dead-cell fraction ([1]; 0.03162 µM): 0.0015
- increase in dead-cell fraction ([1]; 0.1 µM): 0.006
- increase in dead-cell fraction ([1]; 0.3162 µM): 0.0113
- increase in dead-cell fraction ([1]; 1 µM): 0.0148
- increase in dead-cell fraction ([1]; 3.162 µM): 0.0231
- increase in dead-cell fraction ([1]; 10 µM): 0.0492
- increase in dead-cell fraction (Flavopiridol [2]; 0.0001 µM): 0.0046
- increase in dead-cell fraction (Flavopiridol [2]; 0.0003162 µM): 0.0087
- increase in dead-cell fraction (Flavopiridol [2]; 0.001 µM): 0.0086
- increase in dead-cell fraction (Flavopiridol [2]; 0.003162 µM): 0.0003
- increase in dead-cell fraction (Flavopiridol [2]; 0.01 µM): -0.0016
- increase in dead-cell fraction (Flavopiridol [2]; 0.03162 µM): 0.0044
- increase in dead-cell fraction (Flavopiridol [2]; 0.1 µM): 0.0096
- increase in dead-cell fraction (Flavopiridol [2]; 0.3162 µM): 0.0302
- increase in dead-cell fraction (Flavopiridol [2]; 1 µM): 0.479
- GR value (YKL-5-124; 0.001 µM): 0.573 GR
- GR value (YKL-5-124; 0.003162 µM): 0.316 GR
- GR value (YKL-5-124; 0.01 µM): 0.235 GR
- GR value (YKL-5-124; 0.03162 µM): 0.17 GR
- GR value (YKL-5-124; 0.1 µM): 0.135 GR
- GR value (YKL-5-124; 0.3162 µM): 0.153 GR
- GR value (YKL-5-124; 1 µM): 0.131 GR
- GR value (YKL-5-124; 3.162 µM): 0.107 GR
- GR value (YKL-5-124; 10 µM): 0.0273 GR
- GR value (BSJ-03-123; 0.001 µM): 0.975 GR
- GR value (BSJ-03-123; 0.003162 µM): 0.912 GR
- GR value (BSJ-03-123; 0.01 µM): 0.971 GR
- GR value (BSJ-03-123; 0.03162 µM): 0.952 GR
- GR value (BSJ-03-123; 0.1 µM): 0.98 GR
- GR value (BSJ-03-123; 0.3162 µM): 0.942 GR
- GR value (BSJ-03-123; 1 µM): 0.883 GR
- GR value (BSJ-03-123; 3.162 µM): 0.753 GR
- GR value (BSJ-03-123; 10 µM): 0.126 GR
- GR value ([3]; 0.0003162 µM): 1.04 GR
- GR value ([3]; 0.001 µM): 1.03 GR
- GR value ([3]; 0.003162 µM): 1.02 GR
- GR value ([3]; 0.01 µM): 0.974 GR
- GR value ([3]; 0.03162 µM): 0.921 GR
- GR value ([3]; 0.1 µM): 0.889 GR
- GR value ([3]; 0.3162 µM): 0.912 GR
- GR value ([3]; 1 µM): 0.758 GR
- GR value ([3]; 3.162 µM): 0.667 GR
- GR value ([4]; 0.001 µM): 0.987 GR
- GR value ([4]; 0.003162 µM): 0.945 GR
- GR value ([4]; 0.01 µM): 0.955 GR
- GR value ([4]; 0.03162 µM): 0.943 GR
- GR value ([4]; 0.1 µM): 0.872 GR
- GR value ([4]; 0.3162 µM): 0.822 GR
- GR value ([4]; 1 µM): 0.727 GR
- GR value ([4]; 3.162 µM): 0.616 GR
- GR value ([4]; 10 µM): 0.386 GR
- GR value (Neratinib/HKI272; 0.0003162 µM): 1.07 GR
- GR value (Neratinib/HKI272; 0.001 µM): 0.998 GR
- GR value (Neratinib/HKI272; 0.003162 µM): 1.01 GR
- GR value (Neratinib/HKI272; 0.01 µM): 1.04 GR
- GR value (Neratinib/HKI272; 0.03162 µM): 1.03 GR
- GR value (Neratinib/HKI272; 0.1 µM): 0.893 GR
- GR value (Neratinib/HKI272; 0.3162 µM): 0.546 GR
- GR value (Neratinib/HKI272; 1 µM): 0.336 GR
- GR value (Neratinib/HKI272; 3.162 µM): 0.0907 GR
- GR value ([5]; 0.0001 µM): 1.03 GR
- GR value ([5]; 0.0003162 µM): 0.99 GR
- GR value ([5]; 0.001 µM): 1.03 GR
- GR value ([5]; 0.003162 µM): 1.03 GR
- GR value ([5]; 0.01 µM): 1.08 GR
- GR value ([5]; 0.03162 µM): 0.685 GR
- GR value ([5]; 0.1 µM): -0.289 GR
- GR value ([5]; 1 µM): -0.327 GR
- GR value (LEE011/Ribociclib; 0.001 µM): 0.967 GR
- GR value (LEE011/Ribociclib; 0.003162 µM): 0.953 GR
- GR value (LEE011/Ribociclib; 0.01 µM): 0.948 GR
- GR value (LEE011/Ribociclib; 0.03162 µM): 0.927 GR
- GR value (LEE011/Ribociclib; 0.1 µM): 0.984 GR
- GR value (LEE011/Ribociclib; 0.3162 µM): 0.897 GR
- GR value (LEE011/Ribociclib; 1 µM): 0.867 GR
- GR value (LEE011/Ribociclib; 3.162 µM): 0.914 GR
- GR value (LEE011/Ribociclib; 10 µM): 0.792 GR
- GR value (THZ531; 0.0001 µM): 0.942 GR
- GR value (THZ531; 0.0003162 µM): 1.02 GR
- GR value (THZ531; 0.001 µM): 1 GR
- GR value (THZ531; 0.003162 µM): 0.929 GR
- GR value (THZ531; 0.01 µM): 1.01 GR
- GR value (THZ531; 0.03162 µM): 0.967 GR
- GR value (THZ531; 0.1 µM): 1 GR
- GR value (THZ531; 0.3162 µM): 0.894 GR
- GR value (THZ531; 1 µM): -0.0356 GR
- GR value (THZ1; 0.0001 µM): 0.997 GR
- GR value (THZ1; 0.0003162 µM): 0.989 GR
- GR value (THZ1; 0.001 µM): 1 GR
- GR value (THZ1; 0.003162 µM): 0.958 GR
- GR value (THZ1; 0.01 µM): 0.984 GR
- GR value (THZ1; 0.03162 µM): 0.851 GR
- GR value (THZ1; 0.1 µM): 0.569 GR
- GR value (THZ1; 0.3162 µM): 0.338 GR
- GR value (THZ1; 1 µM): -0.312 GR
- GR value (Flavopiridol [6]; 0.0001 µM): 1.04 GR
- GR value (Flavopiridol [6]; 0.0003162 µM): 0.977 GR
- GR value (Flavopiridol [6]; 0.001 µM): 0.895 GR
- GR value (Flavopiridol [6]; 0.003162 µM): 0.982 GR
- GR value (Flavopiridol [6]; 0.01 µM): 0.961 GR
- GR value (Flavopiridol [6]; 0.03162 µM): 0.949 GR
- GR value (Flavopiridol [6]; 0.1 µM): 0.856 GR
- GR value (Flavopiridol [6]; 0.3162 µM): 0.621 GR
- GR value (Flavopiridol [6]; 1 µM): -0.121 GR
